Reference: patent US9290451B2 (Hoffmann-La Roche Inc., priority 2011, dated 2016)
Read-outs that look alike come from different tables or passages of the source.

Legend:
human CB1 receptors = human CB1 receptors (Homo sapiens (Human), UniProt P21554); test: cAMP assay, CHO cells expressing human CB1 receptors; type: cell-based
In short: (§1)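 Whole CHO cells were preincubated in Krebs Ringer bicarbonate buffer with 1 mM IBMX for 30 min at 30 °C, then exposed to compounds for 30 min at 30 °C. cAMP was quantified by time-resolved FRET (cAMP-Nano-TRF) against a standard curve, and EC50 values were derived.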

human CB2 receptors = human CB2 receptors (Homo sapiens (Human), UniProt P34972); test: cAMP assay, CHO cells expressing human CB2 receptors; type: cell-based
In short: as §1

[1] = CHO cells expressing human CB1, cAMP, read-out: human CB1 EC50
[2] = CHO cells expressing human CB2, cAMP, read-out: human CB2 EC50

Chain of human CB1 receptors (P21554 whole entry): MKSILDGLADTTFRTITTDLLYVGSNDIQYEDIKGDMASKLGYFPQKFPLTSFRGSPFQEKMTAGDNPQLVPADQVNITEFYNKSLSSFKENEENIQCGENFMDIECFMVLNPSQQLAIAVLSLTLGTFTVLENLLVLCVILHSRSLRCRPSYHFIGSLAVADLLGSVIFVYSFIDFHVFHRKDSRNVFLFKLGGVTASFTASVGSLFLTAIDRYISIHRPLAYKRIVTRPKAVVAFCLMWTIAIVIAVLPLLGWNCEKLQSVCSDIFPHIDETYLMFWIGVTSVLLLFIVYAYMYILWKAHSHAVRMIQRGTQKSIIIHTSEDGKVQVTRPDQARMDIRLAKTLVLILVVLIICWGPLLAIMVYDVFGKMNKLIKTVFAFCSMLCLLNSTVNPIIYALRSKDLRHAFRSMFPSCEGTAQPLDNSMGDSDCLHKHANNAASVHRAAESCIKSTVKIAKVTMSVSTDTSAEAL
Chain of human CB2 receptors (P34972 whole entry): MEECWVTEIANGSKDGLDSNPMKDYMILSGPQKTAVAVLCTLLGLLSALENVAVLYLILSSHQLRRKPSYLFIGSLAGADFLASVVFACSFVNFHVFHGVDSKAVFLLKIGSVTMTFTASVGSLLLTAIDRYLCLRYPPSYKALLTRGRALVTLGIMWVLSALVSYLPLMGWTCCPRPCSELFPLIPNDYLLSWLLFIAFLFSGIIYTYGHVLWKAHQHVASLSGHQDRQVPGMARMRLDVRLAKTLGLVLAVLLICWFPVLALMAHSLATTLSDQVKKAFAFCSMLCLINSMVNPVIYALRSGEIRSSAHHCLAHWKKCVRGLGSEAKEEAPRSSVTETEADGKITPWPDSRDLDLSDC

Row | Compound | EC50 (human CB1 receptors; [1]) [nM] | EC50 (human CB2 receptors; [2]) [nM] | EC50 (human CB1 receptors) [nM] | EC50 (human CB2 receptors) [nM]
1 | CNC(=O)[C@@H](NC(=O)c1cccc(-c2cccc(C(F)(F)F)c2)n1)C(C)(C)C [Example 214, (S)-N-(3,3-Dimethyl-1-(methylamino)-1-oxobutan-2-yl)-6-(3-(trifluoromethyl)phenyl)-picolinamide] | 1630 | 53.7 |  | 
2 | CC(C)C[C@H](NC(=O)c1ccc(C2CC2)c(OCc2ccccn2)n1)C(N)=O [Example 200, (S)-N-(1-Amino-4-methyl-1-oxopentan-2-yl)-5-cyclopropyl-6-(pyridin-2-ylmethoxy)picolinamide] | > 10000 | 23.3 |  | 
3 | CC(C)(NC(=O)c1ccc(C2CC2)c(OCC2CC2)n1)c1nc(N)no1 [Example 309, 5-Cyclopropyl-6-cyclopropylmethoxy-pyridine-2-carboxylic acid [1-(3-amino-[1,2,4]oxadiazol-5-yl)-1-methyl-ethyl]-amide] | > 10000 | 176 |  | 
4 | CCC(CC)(NC(=O)c1ccc(C(F)(F)F)c(OCC2CC2)n1)C(=O)NC [Example 259, 6-Cyclopropylmethoxy-5-trifluoromethyl-pyridine-2-carboxylic acid (1-ethyl-1-methylcarbamoyl-propyl)-amide] | > 10000 | 5.1 |  | 
5 | O=C(NNC1CCS(=O)(=O)C1)c1cccc(Cc2ccc(F)cc2)n1 (stereo not shown) [Example 308, 6-(4-Fluoro-benzyl)-pyridine-2-carboxylic acid N′-(1,1-dioxo-tetrahydro-1λ^6-thiophen-3-yl)-hydrazide] | > 10000 | 580 |  | 
6 | COCCOC[C@H](CC1CC1)NC(=O)c1ccc(N2CC(F)(F)C2)c(OCC2CC2)n1 [Example 157, 6-Cyclopropylmethoxy-5-(3,3-difluoro-azetidin-1-yl)-pyridine-2-carboxylic acid [(S)-2-cyclopropyl-1-(2-methoxy-ethoxymethyl)-ethyl]-amide] | > 10000 | 27.4 |  | 
7 | Cc1nc(C(CC(C)C)NC(=O)c2ccc(N3CC(F)(F)C3)c(OCC3CC3)n2)no1 (stereo not shown) [Example 272, 6-Cyclopropylmethoxy-5-(3,3-difluoro-azetidin-1-yl)-pyridine-2-carboxylic acid [3-methyl-1-(5-methyl-[1,2,4]oxadiazol-3-yl)-butyl]-amide] |  |  | > 10000 | 4.3
8 | CC(C)(NC(=O)c1ccc(N2CC(F)(F)C2)c(OCC2CC2)n1)c1nccs1 [Example 69, 6-Cyclopropylmethoxy-5-(3,3-difluoro-azetidin-1-yl)-pyridine-2-carboxylic acid (1-methyl-1-thiazol-2-yl-ethyl)-amide] | 380 | 6 |  | 
9 | CCC(C)(NC(=O)c1ccc(C2CC2)c(OCC2CC2)n1)C(N)=O (stereo not shown) [Example 170, N-(1-Amino-2-methyl-1-oxobutan-2-yl)-5-cyclopropyl-6-(cyclopropylmethoxy)picolinamide] | > 10000 | 194 |  | 
10 | NC(=O)[C@H](CC1CC1)NC(=O)c1ccc(C2CCOC2)c(OCC2CC2)n1 (stereo partly drawn) [Example 136, 6-Cyclopropylmethoxy-5-(tetrahydro-furan-3-yl)-pyridine-2-carboxylic acid ((S)-1-carbamoyl-2-cyclopropyl-ethyl)-amide] | > 10000 | 65.4 |  | 
11 | Cc1nc(C(C)(C)NC(=O)c2ccc(C3CC3)c(-c3cccc(Cl)c3)n2)no1 [Example 96, 6-(3-Chloro-phenyl)-5-cyclopropyl-pyridine-2-carboxylic acid [1-methyl-1-(5-methyl-[1,2,4]oxadiazol-3-yl)-ethyl]-amide] | 1440 | 95.8 |  | 
12 | CCC(CC)(NC(=O)c1ccc(C2CC2)c(S(=O)(=O)CC(C)C)n1)C(=O)NC [Example 367, 5-Cyclopropyl-6-(2-methyl-propane-1-sulfonyl)-pyridine-2-carboxylic acid (1-ethyl-1-methylcarbamoyl-propyl)-amide] | > 10000 | 195 |  | 
13 | CC(C)(NC(=O)c1cccc(-c2cccc(Cl)c2)n1)c1ncco1 [Example 8, 6-(3-Chloro-phenyl)-pyridine-2-carboxylic acid (1-methyl-1-oxazol-2-yl-ethyl)-amide] | > 10000 | 99.6 |  | 
14 | CCC(CC)(NC(=O)c1ccc(N2CCCC2)c(OCC2CC2)n1)C(=O)O [Example 291, 2-[(6-Cyclopropylmethoxy-5-pyrrolidin-1-yl-pyridine-2-carbonyl)-amino]-2-ethyl-butyric acid] | > 10000 | 413 |  | 
15 | CC(C)C[C@H](NC(=O)c1cccc(C(O)c2ccc(F)cc2)n1)C(N)=O (stereo partly drawn) [Example 317, 6-[(4-Fluoro-phenyl)-hydroxy-methyl]-pyridine-2-carboxylic acid ((S)-1-carbamoyl-3-methyl-butyl)-amide] | > 10000 | 24.2 |  | 
16 | CS(=O)(=O)CC[C@H](NC(=O)c1ccc(N2CC(F)(F)C2)c(OCC2CC2)n1)C(N)=O [Example 345, 6-Cyclopropylmethoxy-5-(3,3-difluoro-azetidin-1-yl)-pyridine-2-carboxylic acid ((S)-1-carbamoyl-3-methanesulfonyl-propyl)-amide] | > 10000 | 295 |  | 
17 | CC(C)C[C@H](NC(=O)c1ccc(Cl)c(-c2cccc(Cl)c2)n1)C(N)=O [Example 105, 5-Chloro-6-(3-chloro-phenyl)-pyridine-2-carboxylic acid ((S)-1-carbamoyl-3-methyl-butyl)-amide] | > 10000 | 208 |  | 
18 | CCC(CC)(NC(=O)c1ccc(C(F)(F)F)c(OCC2CCOCC2)n1)C(=O)OC [Example 238, 2-Ethyl-2-{[6-(tetrahydro-pyran-4-ylmethoxy)-5-trifluoromethyl-pyridine-2-carbonyl]-amino}-butyric acid methyl ester] | 146 | 0.4 |  | 
19 | O=C(N[C@@H](CC1CC1)c1nccs1)c1cccc(-c2cccc(Cl)c2)n1 [Example 60, 6-(3-Chloro-phenyl)-pyridine-2-carboxylic acid ((S)-2-cyclopropyl-1-thiazol-2-yl-ethyl)-amide] | > 10000 | 62.2 |  | 
20 | Cc1noc(C(C)(C)NC(=O)c2ccc(C3CC3)c(OCC3CC3)n2)n1 [Example 176, 5-Cyclopropyl-6-(cyclopropylmethoxy)-N-(2-(3-methyl-1,2,4-oxadiazol-5-yl)propan-2-yl)picolinamideinamide] | > 10000 | 114 |  | 
21 | O=C(NC(c1ccccn1)C(F)(F)F)c1ccc(C2CC2)c(OCC2CCOCC2)n1 (stereo not shown) [Example 223, 5-Cyclopropyl-6-(tetrahydro-pyran-4-ylmethoxy)-pyridine-2-carboxylic acid (2,2,2-trifluoro-1-pyridin-2-yl-ethyl)-amide] | 655 | 10.9 |  | 
22 | Cc1nc([C@H](CC(C)C)NC(=O)c2cccc(C(O)c3ccc(F)cc3)n2)no1 (stereo partly drawn) [Example 318, 6-[(4-Fluoro-phenyl)-hydroxy-methyl]-pyridine-2-carboxylic acid [(S)-3-methyl-1-(5-methyl-[1,2,4]oxadiazol-3-yl)-butyl]-amide] | > 10000 | 25.1 |  | 
23 | CCC(CC)(NC(=O)c1ccc(C)c(-c2cccc(Cl)c2)n1)C(=O)NC [Example 70, 6-(3-Chloro-phenyl)-5-methyl-pyridine-2-carboxylic acid (1-ethyl-1-methylcarbamoyl-propyl)-amide] | > 10000 | 57.4 |  | 
